Holding throughout (assay type): cell-based
The subject of experiment [1] is MOLT-4 cells. The experiment in a line: MOLT-4 cell viability, MTT assay. To be noted: Homo sapiens, MOLT-4, 48 h. The method, boiled down: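 MOLT-4 cells in RPMI 1640 with 10% FBS were exposed to compounds for 48 h at 9 concentrations (3.16-fold dilutions, triplicates). After 4 h with MTT and overnight SDS/HCl solubilisation, absorbance was read at 540 nm. IC50 came from four-parameter fits versus control, as the mean of ≥2 independent experiments.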
(Tetrazolium dyes change colour on reduction, which living cells bring about.)

A further experiment has as its system NCI-H1650. The experiment in a line: CellTiter-Glo 3D proliferation assay, NCI-H1650 spheroids. The settings on record: 5 days. The method, boiled down:
(§1)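 Both lines grown in RPMI-1640 + 10% FBS. COR-L105 plated flat at 1,000 cells/well overnight; NCI-H1650 grown as spheroids, 3,000 cells/well, 72 h. Compounds at 0.508 nM-10 μM final for 5 days, 37° C. ATP read by CellTiter-Glo (3D version for spheroids); IC50 from variable-slope fit normalized to untreated cells.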

For another experiment, the system named is COR-L105. Description: CellTiter-Glo proliferation assay, COR-L105. The settings on record: COR-L105, 5 days. The method, boiled down: as §1
(In general: ATP-based viability assays read luminescence as a measure of living cells.)

Experiment [2] has as its system MOLT-4 cells. Description: MOLT-4 cell viability, CTG assay. The settings on record: Homo sapiens, MOLT-4, 48 h. The method, boiled down:
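Cells grown in RPMI 1640 with 10% FBS at 37° C, 5% CO2, then exposed to compounds for 48 h (11-point 5-fold dilution, triplicates). ATP measured by CellTiter-Glo luminescence; IC50 from four-parameter fit versus control, mean of ≥2 independent experiments.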

Consider `Cc1ncsc1-c1ccc(CNC(=O)[C@@H]2CC(O)CN2C(=O)C(NC(=O)CCCCCCC(=O)N2CCN(CCOC34CC5(C)CC(C)(CC(Cn6ncc(-c7ccc(N8CCCc9c8nnc(Nc8nc%10ccccc%10s8)c9C)nc7C(=O)O)c6C)(C5)C3)C4)CC2)C(C)(C)C)cc1` (stereo in doubt) [Example 24, 6-[3-(1,3-benzothiazol-2-ylamino)-4-methyl-6,7-dihydro-5H-pyrido[2,3-c]pyridazin-8-yl]-3-[1-[[3-[2-[4-[8-[[(1S)-1-[(2S,4R)-4-hydroxy-2-[[4-(4-methylthiazol-5-yl)phenyl]methylcarbamoyl]pyrrolidine-1-carbonyl]-2,2-dimethyl-propyl]amino]-8-oxo-octanoyl]piperazin-1-yl]ethoxy]-5,7-dimethyl-1-adamantyl]methyl]-5-methyl-pyrazol-4-yl]pyridine-2-carboxylic acid], for which the half-maximal inhibitory concentration (IC50) with MOLT-4 cells [1] was 2.64 nM; with NCI-H1650 it was 92.9 nM; in the experiment with NCI-H1650 (Homo sapiens, NCI-H1650, 120 h), 95 nM; in the experiment on COR-L105, 348 nM; with COR-L105 (Homo sapiens, COR-L105, 120 h), 500 nM. Further, the Emax turned out to be 89.1% with NCI-H1650 (Homo sapiens, NCI-H1650, 120 h, read-out: NCI-H1650 Span (Amax)) and 104% with COR-L105 (Homo sapiens, COR-L105, 120 h, read-out: COR-L105 Span (max)).
For the molecule `Cc1ncsc1-c1ccc(CNC(=O)C2C[C@@H](O)CN2C(=O)C(NC(=O)CCCCCC(=O)N2CCN(CC#Cc3ccc(OCCCc4sc(N5CCCc6c5nnc(Nc5nc7ccccc7s5)c6C)nc4C(=O)O)c(F)c3)CC2)C(C)(C)C)cc1` (stereo in doubt) [Example 15, 2-[3-(1,3-benzothiazol-2-ylamino)-4-methyl-6,7-dihydro-5H-pyrido[2,3-c]pyridazin-8-yl]-5-[3-[2-fluoro-4-[3-[4-[7-[[(1S)-1-[(2S,4R)-4-hydroxy-2-[[4-(4-methylthiazol-5-yl)phenyl]methylcarbamoyl]pyrrolidine-1-carbonyl]-2,2-dimethyl-propyl]amino]-7-oxo-heptanoyl]piperazin-1-yl]prop-1-ynyl]phenoxy]propyl] thiazole-4-carboxylic acid], the half-inhibitory concentration (IC50) was 5.67 nM in the experiment on MOLT-4 cells [1] and 22.6 nM in the experiment with MOLT-4 cells [2].
The corresponding values for `Cc1ncsc1-c1ccc([C@H](C)NC(=O)[C@@H]2C[C@@H](O)CN2C(=O)[C@@H](NC(=O)CCCCCCCN(C)CCOC23CC4(C)CC(C)(CC(Cn5ncc(-c6ccc(N7CCCc8c7nnc(Nc7nc9ccccc9s7)c8C)nc6C(=O)O)c5C)(C4)C2)C3)C(C)(C)C)cc1` [Example 6, 6-[3-(1,3-benzothiazol-2-ylamino)-4-methyl-6,7-dihydro-5H-pyrido[2,3-c]pyridazin-8-yl]-3-[1-[[3-[2-[[8-[[(1S)-1-[(2S,4R)-4-hydroxy-2-[[(1S)-1-[4-(4-methylthiazol-5-yl)phenyl]ethyl]carbamoyl]pyrrolidine-1-carbonyl]-2,2-dimethyl-propyl]amino]-8-oxo-octyl]-methyl-amino]ethoxy]-5,7-dimethyl-1-adamantyl]methyl]-5-methyl-pyrazol-4-yl]pyridine-2-carboxylic acid] are 6.57 nM and 28.7 nM.
The corresponding values for `Cc1ncsc1-c1ccc([C@H](C)NC(=O)[C@@H]2C[C@@H](O)CN2C(=O)[C@@H](NC(=O)CCCCCCCCCCCCCCCN(C)CCOC23CC4(C)CC(C)(CC(Cn5ncc(-c6ccc(N7CCCc8c7nnc(Nc7nc9ccccc9s7)c8C)nc6C(=O)O)c5C)(C4)C2)C3)C(C)(C)C)cc1` [Example 1, 6-[3-(1,3-benzothiazol-2-ylamino)-4-methyl-6,7-dihydro-5H-pyrido[2,3-c]pyridazin-8-yl]-3-[1-[[3-[2-[[16-[[(1S)-1-[(2S,4R)-4-hydroxy-2-[[(1S)-1-[4-(4-methylthiazol-5-yl)phenyl]ethyl]carbamoyl]pyrrolidine-1-carbonyl]-2,2-dimethyl-propyl]amino]-16-oxo-hexadecyl]-methyl-amino]ethoxy]-5,7-dimethyl-1-adamantyl]methyl]-5-methyl-pyrazol-4-yl]pyridine-2-carboxylic acid] are 0.636 nM and 3.41 nM.

One may read the IC50 as the concentration that inhibits the measured activity by half.

These data come from patent publication US20240376094A2, “SELECTIVE BCL-XL PROTAC COMPOUNDS AND METHODS OF USE” (Les Laboratoires Servier, priority 2021, published 2024).
